The source of these data is patent US8455475B2 (Gruenenthal GmbH, priority 2009, dated 2013).

The target in experiment [1] is T1, human B1R (bradykinin receptor 1) (Homo sapiens, UniProt P46663).
T1 construct: expressed in transfected cells; host or cells: CHO K1 cells
T1 sequence (P46663 1-353): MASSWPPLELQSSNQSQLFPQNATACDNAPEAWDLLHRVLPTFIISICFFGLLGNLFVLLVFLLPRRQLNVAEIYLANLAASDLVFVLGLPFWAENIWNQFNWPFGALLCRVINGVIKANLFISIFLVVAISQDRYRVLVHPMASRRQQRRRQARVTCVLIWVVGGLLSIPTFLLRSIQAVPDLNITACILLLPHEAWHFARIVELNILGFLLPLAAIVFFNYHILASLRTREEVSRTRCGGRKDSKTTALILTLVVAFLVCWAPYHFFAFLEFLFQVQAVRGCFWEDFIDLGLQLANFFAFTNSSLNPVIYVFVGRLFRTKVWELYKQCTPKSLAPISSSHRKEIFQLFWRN
The experiment can be described thus: FLIPR Ca2+ assay (Fluo-4) on CHO K1 cells stably transfected with the human B1R gene (hB1R cells): % inhibition at 10 μM / IC50, agonist Lys-Des-Arg9-bradykinin. In kind it is cell-based. The conditions noted are these: for inhibition at 10 µM: CHO-K1, human B1R. Put shortly: (§1)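 Cells were Fluo-4-loaded, then test compound (10 μM, or a concentration series for IC50) was preincubated 10–20 min before agonist challenge at EC80: Lys-Des-Arg9-bradykinin for hB1R, Des-Arg9-bradykinin for rB1R. Peak Ca2+ fluorescence (ex 488/em 540 nm) gave % inhibition versus maximal achievable inhibition.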

Experiment [2] addresses T2, rat B1R (bradykinin receptor 1) (Rattus norvegicus, UniProt P97583).
T2 construct: expressed in transfected cells; host or cells: CHO K1 cells
T2 sequence (P97583 1-337): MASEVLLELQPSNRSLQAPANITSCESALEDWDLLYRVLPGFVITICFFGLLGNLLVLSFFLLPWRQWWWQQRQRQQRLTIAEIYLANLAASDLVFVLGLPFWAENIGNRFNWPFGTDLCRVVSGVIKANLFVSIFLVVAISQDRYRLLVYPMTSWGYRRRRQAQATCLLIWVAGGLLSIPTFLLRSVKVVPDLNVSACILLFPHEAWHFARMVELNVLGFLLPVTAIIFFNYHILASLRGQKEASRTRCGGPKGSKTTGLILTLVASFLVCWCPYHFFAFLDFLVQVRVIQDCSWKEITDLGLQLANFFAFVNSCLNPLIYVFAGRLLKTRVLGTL
The experiment can be described thus: FLIPR Ca2+ assay (Fluo-4) on CHO K1 cells stably transfected with the B1R gene of the rat (rB1R cells): % inhibition at 10 μM / IC50, agonist Des-Arg9-bradykinin. It is filed as cell-based. Particulars: for inhibition at 10 µM: CHO-K1, rat B1R. In a few lines: as §1

As to `O=C(N[C@@H]1CCc2ccc(C(=O)N3CCC4(CCN(c5ccncc5)CC4)C3)cc21)c1cncnc1` [Example H-84, N-[(1R)-6-(8-Pyridin-4-yl-3,8-diazaspiro[4.5]decane-3-carbonyl)-2,3-dihydro-1H-inden-1-yl]-pyrimidine-5-carboxylic acid amide], the inhibition at 10 µM is 100% in experiment [1] and 104% in experiment [2].

As to `O=C(N[C@@H]1CCc2ccc(C(=O)N3CCC4(CCC(N5CCn6ncnc6C5)CC4)CC3)cc21)c1ccccc1Cl` [Example H-55, 2-Chloro-N-[(1R)-6-[9-(5,6,7,8-tetrahydro-[1,2,4]triazolo[1,5-a]pyrazin-7-yl)-3-azaspiro[5.5]undecane-3-carbonyl]-2,3-dihydro-1H-inden-1-yl]-benzamide], the results for the inhibition at 10 µM in experiment [1] and in experiment [2] were 42% and 87%, respectively.

`CC1(C)CC(NC(=O)c2c(Cl)cccc2Cl)c2cc(C(=O)N3CCC4(CC3)CCN(c3ccncc3)CC4)ccc21` (stereo not shown) [IND_CC-288, 2,6-Dichloro-N-[3,3-dimethyl-6-(3-pyridin-4-yl-3,9-diazaspiro[5.5]undecane-9-carbonyl)-1,2-dihydro-inden-1-yl]-benzamide]: the inhibition at 10 µM in experiment [1] stood at 100%; in experiment [2] it was 106%.

In the case of `COc1ccc2cc(C(=O)N[C@@H]3CCc4ccc(C(=O)N5CCC6(CCN(c7ccncc7)CC6)C5)cc43)ccc2c1` [Example H-56, 6-Methoxy-N-[(1R)-6-(8-pyridin-4-yl-3,8-diazaspiro[4.5]decane-3-carbonyl)-2,3-dihydro-1H-inden-1-yl]-naphthalene-2-carboxylic acid amide], the inhibition at 10 µM was 94% in experiment [1] and 68% in experiment [2].

`O=C(Nc1ccc(Cl)c(Cl)c1)NC1CCc2ccc(C(=O)N3CCC4(CCN(c5ccncc5)CC4)C3)cc21` (stereo not shown) [Ind_CC-085]: the “% Inhibition (human B1R) at 10 μM” value in experiment [1] is listed as 91%. Further, in experiment [2], the “% Inhibition (rat B1R) at 10 μM” value is 77%.

Take `O=C(NC1CCc2ccc(C(=O)N3CCC4(CC3)CCN(c3ccncc3)CC4)cc21)c1c(Cl)cccc1Cl` (stereo not shown) [IND_CC-269, 2,6-Dichloro-N-[6-(9-pyridin-4-yl-3,9-diazaspiro[5.5]undecane-3-carbonyl)-2,3-dihydro-1H-inden-1-yl]-benzamide]: the inhibition at 10 µM in experiment [1] was determined as 100%; in experiment [2] it was 107%.

`O=C(Nc1ccc(Cl)c(Cl)c1)NC1CCc2ccc(C(=O)N3CCC4(CC3)CCN(c3ccncc3)C4)cc21` (stereo not shown) [Ind_CC-047]: the “% Inhibition (human B1R) at 10 μM” value in experiment [1] is on record as 94%. The “% Inhibition (rat B1R) at 10 μM” value in experiment [2] came to 60%.

On to `COc1cc(C)c(C(=O)NC2CCc3ccc(C(=O)N4CCC5(CC4)CCN(c4ccncc4)CC5)cc32)c(C)c1` (stereo not shown) [Ind_CC-013, 4-methoxy-2,6-dimethyl-N-[6-(9-pyridin-4-yl-3,9-diazaspiro[5.5]undecane-3-carbonyl)-2,3-dihydro-1H-inden-1-yl]-benzamide], for which the values for the inhibition at 10 µM in experiment [1] and in experiment [2] were 68% and 71%, respectively.

Take `O=C(N[C@@H]1CCc2ccc(C(=O)N3CCC4(CCN(c5ccncc5)CC4)C3)cc21)c1cc(Cl)ccc1Cl` [Example H-98, 2,5-Dichloro-N-[(1R)-6-(8-pyridin-4-yl-3,8-diazaspiro[4.5]decane-3-carbonyl)-2,3-dihydro-1H-inden-1-yl]-benzamide]: the inhibition at 10 µM came to 100% in experiment [1] and 108% in experiment [2].

For `O=C(c1ccc2c(c1)CC[C@@H]2N1Cc2cccc(Cl)c2C1=O)N1CCC2(CCN(c3ccncc3)CC2)C1` [Example H-157], the inhibition at 10 µM came to 100% in experiment [1] and 98% in experiment [2].

Consider `O=C(N[C@@H]1CCCc2ccc(C(=O)N3CCC4(CC3)CCN(c3ccncc3)C4)cc21)c1ccccc1Cl` [Example H-72], for which the inhibition at 10 µM in experiment [1] is 100%; in experiment [2] it was 104%.

Turning to `O=C(NC1CCc2ccc(C(=O)N3CCC4(CC3)CCN(c3ccncc3)C4)cc21)c1cccc(Cl)c1Cl` (stereo not shown) [IND_CC-267, 2,3-Dichloro-N-[6-(2-pyridin-4-yl-2,8-diazaspiro[4.5]decane-8-carbonyl)-2,3-dihydro-1H-inden-1-yl]-benzamide], the inhibition at 10 µM is 86% in experiment [1] and 106% in experiment [2].

On to `O=C(NC1CCc2ccc(C(=O)N3CCC4(CC3)CCN(c3ccncc3)C4)cc21)c1cc(Cl)ccc1C(F)(F)F` (stereo not shown) [IND_CC-303, 5-Chloro-N-[6-(2-pyridin-4-yl-2,8-diazaspiro[4.5]decane-8-carbonyl)-2,3-dihydro-1H-inden-1-yl]-2-(trifluoromethyl)-benzamide], for which the inhibition at 10 µM was found to be 92% in experiment [1] and 106% in experiment [2].

With `N#Cc1cccc(CN2CCC3(CC2)CCN(C(=O)c2ccc4c(c2)C(NC(=O)c2ccccc2Cl)CC4)C3)c1` (stereo not shown) [IND_CC-562, 2-Chloro-N-[6-[8-[(3-cyano-phenyl)-methyl]-2,8-diazaspiro[4.5]decane-2-carbonyl]-2,3-dihydro-1H-inden-1-yl]-benzamide], the inhibition at 10 µM in experiment [1] stood at 27%; in experiment [2] it was 104%.

With `CC1(C)CC(NC(=O)c2sccc2Cl)c2cc(C(=O)N3CCC4(CC3)CCN(c3ccncc3)CC4)ccc21` (stereo not shown) [Ind_CC-055, 3-chloro-N-[3,3-dimethyl-6-(9-pyridin-4-yl-3,9-diazaspiro[5.5]undecane-3-carbonyl)-1,2-dihydro-inden-1-yl]-thiophene-2-carboxylic acid amide], the figures for the inhibition at 10 µM in experiment [1] and in experiment [2] were 99% and 102%, respectively.

Consider `O=C(/C=C/c1ccccc1Cl)NC1CCc2ccc(C(=O)N3CCC4(CC3)CCN(c3ccncc3)C4)cc21` (stereo not shown) [Ind_CC-046, (E)-3-(2-chlorophenyl)-N-[6-(2-pyridin-4-yl-2,8-diazaspiro[4.5]decane-8-carbonyl)-2,3-dihydro-1H-inden-1-yl]-acrylamide], for which the inhibition at 10 µM in experiment [1] worked out at 98%; in experiment [2], 68%.

In the case of `CC1(C)Cc2ccc(C(=O)N3CCC4(CC3)CCN(c3ccncc3)CC4)cc2C1NC(=O)c1cc(Cl)ccc1Cl` (stereo not shown) [IND_CC-210, 2,5-Dichloro-N-[2,2-dimethyl-6-(9-pyridin-4-yl-3,9-diazaspiro[5.5]undecane-3-carbonyl)-1,3-dihydro-inden-1-yl]-benzamide], the inhibition at 10 µM came out at 97% in experiment [1] and 104% in experiment [2].

For the molecule `Cc1ccc(C(=O)N(C)C2CCc3ccc(C(=O)N4CCC5(CC4)CCN(c4ccncc4)CC5)cc32)c(F)c1` (stereo not shown) [IND_CC-304, 2-Fluoro-N,4-dimethyl-N-[6-(9-pyridin-4-yl-3,9-diazaspiro[5.5]undecane-3-carbonyl)-2,3-dihydro-1H-inden-1-yl]-benzamide], the results for the inhibition at 10 µM in experiment [1] and in experiment [2] were 49% and 104%, respectively.

`O=C(NCc1ccccc1Cl)NC1CCc2ccc(C(=O)N3CCC4(CC3)CCN(c3ccncc3)CC4)cc21` (stereo not shown) [Ind_CC-012, 1-[(2-chlorophenyl)-methyl]-3-[6-(9-pyridin-4-yl-3,9-diazaspiro[5.5]undecane-3-carbonyl)-2,3-dihydro-1H-inden-1-yl]-urea]: the inhibition at 10 µM in experiment [1] and in experiment [2] was 100% in each case.

`O=C(N[C@@H]1CCc2ccc(C(=O)N3CCC4(CCN(c5ccncc5)CC4)C3)cc21)c1cccc(Cl)c1Cl` [Example H-94, 2,3-Dichloro-N-[(1R)-6-(8-pyridin-4-yl-3,8-diazaspiro[4.5]decane-3-carbonyl)-2,3-dihydro-1H-inden-1-yl]-benzamide]: the values for the inhibition at 10 µM in experiment [1] and in experiment [2] were 100% and 98%, respectively.

As usually defined, the inhibition is the change of the read-out against control, counted positive when it falls.
